The record followed here is US7321056B2, “Selective peroxisome proliferator activated receptor modulators” (Eli Lilly and Company, priority 2003, dated 2008).

Read-outs that look alike come from different tables or passages of the source.

Data set [1] deals with T1, PPARγ (Homo sapiens, UniProt P37231).
T1 sequence (P37231 238-505 limits assumed): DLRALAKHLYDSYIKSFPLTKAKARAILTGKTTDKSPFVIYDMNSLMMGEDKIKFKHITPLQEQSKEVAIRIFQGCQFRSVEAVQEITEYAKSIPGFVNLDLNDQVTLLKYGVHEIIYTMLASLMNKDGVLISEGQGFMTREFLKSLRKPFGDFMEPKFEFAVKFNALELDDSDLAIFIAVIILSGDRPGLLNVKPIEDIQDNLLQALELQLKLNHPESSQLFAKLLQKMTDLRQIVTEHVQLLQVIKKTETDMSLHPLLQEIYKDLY
Nature of the data set: Cotransfection (CTF) / response element assays, PPARγ in CV-1 cells. Format: cell-based. Details: Eff (γ); HD Eff; other: response element assay, HD PPRE reporter; LPL Eff; other: response element assay, LPL PPRE reporter; ApoA1 Eff; other: response element assay, ApoA1; PPARγ or PPARα are constitutively expressed using plasmids containing the cytomegalovirus promoter. The following applies: for Eff (γ): Table 1, relative to PPARγ full agonist set at 100%. The source says:
(§1) PPARγ or PPARα are constitutively expressed using plasmids containing the cytomegalovirus promoter. Reporter plasmids for the PPARγ CTF assays contain PPREs from the following genes: acyl coA oxidase (AOX); apolipoprotein A1 (ApoA1); lipoprotein lipase (LPL); or enoyl-CoA hydratase/3-hydroxyacyl-CoA dehydrogenase (HD) plus the thymidine kinase (TK) promoter upstream of the luciferase reporter cDNA. A PPARγ […] galactosidase (GAL4) chimeric system is also used. For PPARα, a GAL4 chimeric system is the standard CTF assay performed. All assays are done in CV-1 cells. Compounds are tested in full log dilution, from 0.1 nM to 10 μM in duplicate. Percent efficacies are determined relative to reference molecules with the efficacy value reflecting the greatest amount of agonist activity achieved in the CTF assay for each compound. Median effective concentration (EC50) values are determined by computer fit to a concentration-response curve. An EC50 value is not calculated if the efficacy for the compound is <20%. Reported values represent means from two to nine separate experiments.

For data set [2], the target named is T2, PPARγ ligand binding domain / TRAP220 (Homo sapiens, UniProt P37231).
T2 construct: expressed in transfected cells; host or cells: CV-1 cells
T2 sequence (Q15648 whole entry partner, species assumed, one chain of several, the tested form may be a part): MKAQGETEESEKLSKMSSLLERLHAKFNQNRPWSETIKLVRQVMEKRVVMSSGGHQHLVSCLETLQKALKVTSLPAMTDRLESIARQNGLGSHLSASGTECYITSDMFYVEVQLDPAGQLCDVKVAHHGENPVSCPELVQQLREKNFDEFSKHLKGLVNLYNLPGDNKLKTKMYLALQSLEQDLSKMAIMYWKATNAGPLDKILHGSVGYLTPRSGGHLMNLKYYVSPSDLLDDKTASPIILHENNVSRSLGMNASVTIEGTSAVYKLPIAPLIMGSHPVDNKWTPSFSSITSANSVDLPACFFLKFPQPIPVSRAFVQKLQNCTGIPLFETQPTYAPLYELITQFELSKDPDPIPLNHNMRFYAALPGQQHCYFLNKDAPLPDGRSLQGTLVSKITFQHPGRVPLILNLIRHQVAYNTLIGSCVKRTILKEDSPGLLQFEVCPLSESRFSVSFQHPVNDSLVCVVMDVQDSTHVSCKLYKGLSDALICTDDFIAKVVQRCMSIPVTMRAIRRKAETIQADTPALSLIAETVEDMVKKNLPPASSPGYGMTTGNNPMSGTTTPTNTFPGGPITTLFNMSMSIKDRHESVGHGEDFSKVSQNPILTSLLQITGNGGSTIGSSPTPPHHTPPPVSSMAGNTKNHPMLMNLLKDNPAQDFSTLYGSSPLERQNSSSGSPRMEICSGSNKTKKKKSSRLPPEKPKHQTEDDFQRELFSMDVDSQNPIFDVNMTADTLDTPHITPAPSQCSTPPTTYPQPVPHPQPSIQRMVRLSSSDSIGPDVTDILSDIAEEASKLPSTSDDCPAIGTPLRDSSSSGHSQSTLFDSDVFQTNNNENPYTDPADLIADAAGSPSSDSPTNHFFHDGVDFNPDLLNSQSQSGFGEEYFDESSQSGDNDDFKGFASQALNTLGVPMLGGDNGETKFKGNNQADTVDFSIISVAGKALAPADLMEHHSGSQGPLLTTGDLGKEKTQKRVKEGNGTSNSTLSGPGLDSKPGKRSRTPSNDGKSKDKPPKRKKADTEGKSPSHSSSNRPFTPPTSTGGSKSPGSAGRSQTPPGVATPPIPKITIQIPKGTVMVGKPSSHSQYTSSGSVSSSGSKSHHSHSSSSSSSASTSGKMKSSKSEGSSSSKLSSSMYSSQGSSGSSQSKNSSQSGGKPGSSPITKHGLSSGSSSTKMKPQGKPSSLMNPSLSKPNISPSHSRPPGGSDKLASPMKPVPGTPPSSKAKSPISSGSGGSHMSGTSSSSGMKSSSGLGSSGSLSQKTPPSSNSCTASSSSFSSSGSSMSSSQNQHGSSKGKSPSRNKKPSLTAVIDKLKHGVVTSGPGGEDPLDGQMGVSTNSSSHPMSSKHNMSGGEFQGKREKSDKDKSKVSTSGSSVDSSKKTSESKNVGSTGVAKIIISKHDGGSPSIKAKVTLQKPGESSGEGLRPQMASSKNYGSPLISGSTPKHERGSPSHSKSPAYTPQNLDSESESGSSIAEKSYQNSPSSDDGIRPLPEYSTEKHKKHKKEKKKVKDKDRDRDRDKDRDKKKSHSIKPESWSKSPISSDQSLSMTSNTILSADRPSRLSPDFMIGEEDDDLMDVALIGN
Briefly: Co-factor recruitment assay (mammalian-2-hybrid, CV-1 cells), TRAP220. It counts as cell-based. The following applies: for TRAP220 Eff: relative to a PPARγ full agonist. The source says: (§2) A mammalian-2-hybrid assay system in CTF format is done in CV-1 cells. The following plasmids are used: a mammalian expression vector encoding a fusion of the GAL4 DNA binding domain with the PPARγ ligand binding domain; a mammalian expression vector encoding a fusion of the VP16 transactivation domain with the nuclear receptor interaction domain of the respective co-activators: CREB-binding protein (CBP), peroxisome proliferator-activated receptor gamma coactivator-1 (PGC-1), activating signal cointegrator-2 (ASC-2), thyroid hormone receptor-activated protein complex (TRAP220), and the peptide C33; and a reporter plasmid (multimerized GAL4 binding sites/minimal TK promoter driving a luciferase cDNA). Cells are transfected in batch format and treated with compound (full log dilution from 0.1 nM to 10 μM) or vehicle for 24 hours. Subsequently, the cells are lysed and luciferase activity is measured. Luciferase activity serves as the endpoint for interaction between co-activator and receptor. The data are presented as % efficacy relative to a PPARγ full agonist and represent means from four to six separate experiments.

The target of a further data set is T3, PPARα (Homo sapiens, UniProt Q07869).
T3 construct: made in house; host or cells: baculovirus expression system
T3 sequence (Q07869 whole entry): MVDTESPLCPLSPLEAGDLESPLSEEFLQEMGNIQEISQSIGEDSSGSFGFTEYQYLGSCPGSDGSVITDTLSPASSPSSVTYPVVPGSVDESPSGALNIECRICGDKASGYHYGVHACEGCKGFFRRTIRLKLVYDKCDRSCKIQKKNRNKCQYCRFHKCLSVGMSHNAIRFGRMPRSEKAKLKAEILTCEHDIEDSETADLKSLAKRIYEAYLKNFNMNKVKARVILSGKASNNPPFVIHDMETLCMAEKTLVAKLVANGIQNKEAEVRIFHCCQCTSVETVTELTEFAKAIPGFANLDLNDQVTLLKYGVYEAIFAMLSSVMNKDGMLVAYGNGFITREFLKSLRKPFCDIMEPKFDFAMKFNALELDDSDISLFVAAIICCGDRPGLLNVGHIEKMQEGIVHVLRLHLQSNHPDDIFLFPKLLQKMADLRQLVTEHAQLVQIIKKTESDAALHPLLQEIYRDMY
T3 sequence (P19793 whole entry, further chain): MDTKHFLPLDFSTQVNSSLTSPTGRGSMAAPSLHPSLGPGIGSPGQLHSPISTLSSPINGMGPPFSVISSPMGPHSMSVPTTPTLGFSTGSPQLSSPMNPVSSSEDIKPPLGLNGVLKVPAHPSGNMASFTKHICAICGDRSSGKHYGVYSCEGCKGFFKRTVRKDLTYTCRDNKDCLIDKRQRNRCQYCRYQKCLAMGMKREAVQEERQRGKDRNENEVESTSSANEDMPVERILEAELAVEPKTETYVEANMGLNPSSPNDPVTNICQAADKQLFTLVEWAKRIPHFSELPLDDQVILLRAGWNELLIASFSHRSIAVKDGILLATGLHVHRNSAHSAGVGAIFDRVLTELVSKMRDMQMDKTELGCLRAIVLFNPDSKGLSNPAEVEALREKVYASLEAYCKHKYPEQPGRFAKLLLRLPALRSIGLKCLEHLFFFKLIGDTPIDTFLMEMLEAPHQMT
Nature of the data set: Competitive displacement binding assay (SPA), PPARα. The conditions noted are these: PPARα/RXRα. On the procedure: Binding assays are performed using scintillation proximity assay (SPA) technology, PPAR receptors, and corresponding radiolabeled ligands. PPARα and PPARγ along with their heterodimeric partner, retinoid X receptor α, are each produced using a baculovirus expression system. Biotinylated oligonucleotides containing PPAR response elements (PPREs) are used to couple the corresponding receptor dimers to yttrium silicate streptavidin-coated SPA beads. PPARγ- and PPARα-specific ligands are labeled with tritium and used in the appropriate corresponding assays. The IC50 values (compound concentration which causes 50% inhibition) for each competing compound are calculated after deduction of non-specific binding (measured in the presence of 10 μM unlabeled ligand). Compounds are evaluated using an 11-point dose response curve with concentrations ranging from 0.169 nM to 10 μM. Reported values represent means from one to seven separate experiments.

The target of data set [3] is T4, PPARγ ligand binding domain / peptide C33 (Homo sapiens, UniProt P37231).
T4 construct: expressed in transfected cells; host or cells: CV-1 cells
T4 sequence (P37231 238-503 limits assumed): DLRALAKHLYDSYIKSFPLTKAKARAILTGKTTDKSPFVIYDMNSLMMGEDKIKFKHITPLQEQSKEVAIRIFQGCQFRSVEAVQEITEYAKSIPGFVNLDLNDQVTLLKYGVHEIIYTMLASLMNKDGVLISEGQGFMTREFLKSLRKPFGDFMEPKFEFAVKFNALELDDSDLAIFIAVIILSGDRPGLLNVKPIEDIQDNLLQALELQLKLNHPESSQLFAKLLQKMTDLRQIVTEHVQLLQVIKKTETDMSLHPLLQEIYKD
Briefly: Co-factor recruitment assay (mammalian-2-hybrid, CV-1 cells), peptide C33. Format: cell-based. The conditions noted are these: for C33 Eff: relative to a PPARγ full agonist.
From the text: as §2

In data set [4] the target is T1, PPARγ. Nature of the data set: Cotransfection (CTF) / response element assays, PPARγ in CV-1 cells. Format: cell-based. Details: rows headed: PPARγ efficacy (% efficacy compared to a PPARγ full agonist set at 100%); PPARγ or PPARα are constitutively expressed using plasmids containing the cytomegalovirus promoter. The conditions noted are these: CV-1; range over CTF assays of Tables 1 and 3; read-out: PPARγ efficacy (% efficacy compared to a PPARγ full agonist set at 100%).
From the text: as §1

The next data set relates to diabetic (db/db) mice. Nature of the data set: Glucose, triglyceride, hematocrit levels and body weight gain in diabetic mice. The following applies: for plasma glucose normalization / plasma triglycerides normalization: db/db mice.
The target in data set [5] is T5, PPARγ ligand binding domain / ASC-2 (Homo sapiens, UniProt P37231).
T5 construct: expressed in transfected cells; host or cells: CV-1 cells
T5 sequence (Q14686 whole entry partner, species assumed, one chain of several, the tested form may be a part): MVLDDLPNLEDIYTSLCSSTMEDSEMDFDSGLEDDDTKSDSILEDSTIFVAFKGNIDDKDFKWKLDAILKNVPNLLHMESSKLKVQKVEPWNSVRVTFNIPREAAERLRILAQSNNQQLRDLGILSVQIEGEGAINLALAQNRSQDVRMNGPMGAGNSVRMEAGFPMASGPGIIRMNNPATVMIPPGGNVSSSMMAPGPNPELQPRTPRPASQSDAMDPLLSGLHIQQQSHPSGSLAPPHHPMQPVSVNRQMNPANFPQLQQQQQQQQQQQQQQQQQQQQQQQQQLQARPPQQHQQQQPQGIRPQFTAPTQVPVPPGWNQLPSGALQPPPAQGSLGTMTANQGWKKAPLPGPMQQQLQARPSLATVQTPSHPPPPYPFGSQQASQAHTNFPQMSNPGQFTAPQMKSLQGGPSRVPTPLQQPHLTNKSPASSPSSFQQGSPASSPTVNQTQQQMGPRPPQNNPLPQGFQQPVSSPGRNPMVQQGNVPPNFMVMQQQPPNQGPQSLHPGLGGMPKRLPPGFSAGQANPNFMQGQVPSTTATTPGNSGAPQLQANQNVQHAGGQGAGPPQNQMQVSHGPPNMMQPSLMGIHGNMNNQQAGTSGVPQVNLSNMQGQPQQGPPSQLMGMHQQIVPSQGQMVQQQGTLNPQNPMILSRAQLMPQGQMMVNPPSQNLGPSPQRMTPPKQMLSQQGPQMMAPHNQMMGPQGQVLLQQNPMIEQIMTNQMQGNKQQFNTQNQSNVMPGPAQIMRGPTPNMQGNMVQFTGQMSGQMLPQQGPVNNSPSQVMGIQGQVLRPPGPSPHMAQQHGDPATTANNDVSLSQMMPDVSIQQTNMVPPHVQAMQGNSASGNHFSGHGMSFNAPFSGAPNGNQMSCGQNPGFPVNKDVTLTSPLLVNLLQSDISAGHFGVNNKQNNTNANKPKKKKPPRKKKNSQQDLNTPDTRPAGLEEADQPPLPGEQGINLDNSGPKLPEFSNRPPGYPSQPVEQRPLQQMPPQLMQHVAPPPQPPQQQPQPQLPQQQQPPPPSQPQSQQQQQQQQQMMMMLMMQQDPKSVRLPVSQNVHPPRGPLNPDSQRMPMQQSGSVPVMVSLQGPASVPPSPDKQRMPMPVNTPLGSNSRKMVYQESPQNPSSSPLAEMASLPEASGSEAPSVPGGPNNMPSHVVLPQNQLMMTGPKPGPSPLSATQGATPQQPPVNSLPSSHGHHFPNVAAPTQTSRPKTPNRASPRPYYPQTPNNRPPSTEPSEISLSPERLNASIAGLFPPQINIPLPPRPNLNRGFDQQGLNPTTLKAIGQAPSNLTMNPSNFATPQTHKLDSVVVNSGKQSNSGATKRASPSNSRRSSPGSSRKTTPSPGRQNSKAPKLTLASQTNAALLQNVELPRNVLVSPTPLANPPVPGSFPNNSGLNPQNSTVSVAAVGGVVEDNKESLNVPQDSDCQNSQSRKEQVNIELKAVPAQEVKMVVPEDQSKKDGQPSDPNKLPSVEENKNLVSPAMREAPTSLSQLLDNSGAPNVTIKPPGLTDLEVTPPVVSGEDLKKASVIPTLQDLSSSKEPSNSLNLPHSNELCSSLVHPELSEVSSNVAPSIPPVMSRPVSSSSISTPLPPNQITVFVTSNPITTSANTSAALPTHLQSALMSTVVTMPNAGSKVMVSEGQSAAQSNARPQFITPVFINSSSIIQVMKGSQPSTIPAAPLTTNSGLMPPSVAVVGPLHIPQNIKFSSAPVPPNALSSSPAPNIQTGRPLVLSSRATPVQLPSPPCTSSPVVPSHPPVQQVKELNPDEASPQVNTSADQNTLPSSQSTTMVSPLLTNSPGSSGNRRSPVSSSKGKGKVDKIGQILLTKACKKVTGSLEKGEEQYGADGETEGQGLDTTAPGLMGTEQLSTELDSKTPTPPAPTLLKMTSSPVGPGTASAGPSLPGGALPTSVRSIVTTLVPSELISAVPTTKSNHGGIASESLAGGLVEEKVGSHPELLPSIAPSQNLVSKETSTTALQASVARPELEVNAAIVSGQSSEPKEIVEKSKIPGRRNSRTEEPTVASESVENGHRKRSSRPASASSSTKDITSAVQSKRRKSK
Nature of the data set: Co-factor recruitment assay (mammalian-2-hybrid, CV-1 cells), ASC-2. Format: cell-based. The following applies: for EC50: read-out: ASC2 EC50; for ASC2 Eff: relative to a PPARγ full agonist.
From the text: as §2

[6] abbreviates: CTF, Table 1, read-out: EC50 (γ).
The mark [7] stands for this setting: response element assay, HD PPRE reporter.
Setting [8] is: response element assay, HD PPRE reporter, read-out: HD EC50.
The mark [9] stands for this setting: response element assay, LPL PPRE reporter.
The mark [10] stands for this setting: response element assay, LPL PPRE reporter, read-out: LPL EC50.
The mark [11] stands for this setting: 3 mg/kg/day oral gavage, 7 days.
Where [12] appears, read: 10 mg/kg/day oral gavage, 7 days.
Where [13] appears, read: 30 mg/kg/day oral gavage, 7 days.
Setting [14] is: 100 mg/kg/day oral gavage, 7 days.

Method for diabetic (db/db) mice: Five-week-old male diabetic (db/db) mice (Harlan Laboratories, Indianapolis, Ind.) are housed in plastic cages (n=6/cage; cage size is approximately 10×20×8″ with aspen chip bedding) with free access to water (sipper system—city tap water) and food (Purina 5008). After two weeks of acclimation, animals (7 weeks of age) are bled on day 0 at 1000-1200 h (lights on 0600 h) and assigned to treatment groups (n=5 or 6) based on starting glucose values. Compound or vehicle only treatments are administered daily by oral gavage at approximately 0730 h. Body weights are measured at the beginning (day 0) and end (day 7 or day 14) of the studies. Blood is collected in heparinized tubes from the tail of nonfasted animals two to three hours after the last dose. Hematocrit, glucose and triglycerides levels are then determined. The reported values for glucose and triglyceride levels represent the % of normalization compared to the lean littermate values set at 100% or glucose normalization calculated based on a normal glucose level of 250 mg/dl. Statistical significance between experimental groups is assessed using a two-sided student's t-test.
Plasma glucose and hematocrit levels along with body weight are measured before the study began (day 0) and at the end of the study (day 14).
Plasma glucose, triglyceride, and hematocrit levels along with body weight are measured before the study began (day 0) and at the end of the study (day 7).

Take `COc1ccc(CCNC(=O)COc2ccc(C[C@H](OC)C(=O)O)cc2)cc1` [formula III, (2S)-3-(4-{[2-(4-methoxy-phenyl)-ethylcarbamoyl]-methoxy}-phenyl)-2-methoxy-propionic acid]: the “Eff (γ)” value on PPARγ [1] (CTF) was determined as 60 % efficacy. Further, the EC50 at PPARγ [1] (setting [6]) is 1890 nM; on PPARγ [1] (setting [8]) it was 1140 nM; on PPARγ [1] (setting [10]), 1420 nM; in data set [3] it was 3010 nM; in data set [5] it was 1380 nM. In addition, the “HD Eff” value on PPARγ [1] (setting [7]) came out at 54 % efficacy. At PPARγ [1] (setting [9]), the “LPL Eff” value came out at 86 % efficacy. Moreover, the TRAP220 efficacy result in data set [2] is “Eff < 20”. In addition, in data set [2], the “TRAP220 Eff” value is listed as 7 % efficacy. This compound gave an IC50 on PPARα of 113 nM. Also, the “C33 Eff” value in data set [3] was determined as 13 % efficacy. Further, the Emax on PPARγ [4] is 30 to 86%. For the same compound, the plasma glucose normalization in the data set with diabetic (db/db) mice (1 mg/kg/day oral gavage, 14 days) is 42.7 % normalization; in the data set on diabetic (db/db) mice (3 mg/kg/day oral gavage, 14 days), 68.3 % normalization; with diabetic (db/db) mice (10 mg/kg/day oral gavage, 14 days), 96.1 % normalization; with diabetic (db/db) mice (30 mg/kg/day oral gavage, 14 days), 109.3 % normalization. Besides, the “dose-dependent reduction in hematocrit levels, indicative of plasma volume expansion” value in the data set on diabetic (db/db) mice (db/db mice, 1, 3, 10, 30 mg/kg/day oral gavage, 14 days) is recorded as “not seen”. Further, the “ASC2 Eff” value in data set [5] is 15 % efficacy.

In the case of `CCOc1ccc(CCNC(=O)COc2ccc(C[C@H](OC)C(=O)O)cc2)cc1` [formula V, (S)-3-(4-{[2-(4-ethoxy-phenyl)-ethylcarbamoyl]-methoxy}-phenyl)-2-methoxy-propionic acid], the “Eff (γ)” value at PPARγ [1] (CTF) came out at 60 % efficacy. Moreover, the EC50 at PPARγ [1] (setting [6]) was 1010 nM; on PPARγ [1] (response element assay, ApoA1 PPRE reporter, read-out: ApoA1 EC50), 335 nM; at PPARγ [1] (setting [8]), 1040 nM; at PPARγ [1] (setting [10]), 466 nM; in data set [2], 3060 nM; in data set [3], 2890 nM. In data set [5], the EC50 came out at 2870 nM. Also, the “ApoA1 Eff” value on PPARγ [1] (response element assay, ApoA1 PPRE reporter) amounted to 39 % efficacy. Moreover, the “HD Eff” value on PPARγ [1] (setting [7]) was found to be 58 % efficacy. For the same compound, the “LPL Eff” value on PPARγ [1] (setting [9]) is given as 80 % efficacy. In addition, in data set [2], the “TRAP220 Eff” value is on record as 16 % efficacy. Moreover, the IC50 at PPARα was found to be 360 nM. The “C33 Eff” value in data set [3] came to 43 % efficacy. Further, the Emax at PPARγ [4] lay in the range of 39 to 80%. Also, the plasma glucose normalization is given as 61.2 % normalization in the data set on diabetic (db/db) mice (setting [11]), 87.5 % normalization in the data set on diabetic (db/db) mice (setting [12]), 105.6 % normalization in the data set with diabetic (db/db) mice (setting [13]) and 110.3 % normalization in the data set with diabetic (db/db) mice (setting [14]). In addition, the plasma triglycerides normalization is listed as 108.1 % normalization with diabetic (db/db) mice (setting [11]), 108.1 % normalization in the data set on diabetic (db/db) mice (setting [12]), 121.1 % normalization with diabetic (db/db) mice (setting [13]) and 130.6 % normalization in the data set with diabetic (db/db) mice (setting [14]). Moreover, in data set [5], the “ASC2 Eff” value is recorded as 33 % efficacy.

Broadly, the EC50 is the concentration giving half of the maximal effect. By IC50 is commonly meant the point on the concentration scale where inhibition reaches its midpoint. High values mean a need for much substance, low ones inhibition by little substance.
